Values quoted from earlier work in patent US9625473B2, “Cytokine biomarkers as predictive biomarkers of clinical response for glatiramer acetate” (TEVA PHARMACEUTICAL INDUSTRIES LTD., priority 2010, dated 2017).

Columns and labels:
PBMC = settings: GA-treated vs. untreated patients
IL-4 = settings: after stimulation with GA, mediated predominantly by CD4 cells, GA-treated vs. untreated patients
IFN-gamma = settings: after stimulation with high GA concentrations, partially mediated by CD8 cells, GA-treated vs. untreated patients

Glatiramer acetate [GA]
GA-induced PBMC proliferation (PBMC): significant reduction
IL-4 ELISPOT response (IL-4): positive
IFN-gamma response (IFN-gamma): elevated
number of relapses, compared with placebo (RRMS subjects; RRMS subjects, GA 20 mg/day, three double-blind placebo-controlled studies): significant reduction
tolerability (RRMS subjects; daily standard dose of 20 mg): generally well tolerated
relapse rate reduction (RRMS subjects; largest controlled study, GA 20 mg vs placebo): 32%
relapse rate (RRMS subjects; largest controlled study, under GA 20 mg): 1.34
median cumulative number of Gd-enhancing lesions (RRMS subjects; over 9 months of treatment, 20 mg group, MRI): 11 lesions
